Legend:
adult male rats = settings: 90 days, ref Ngoula et al. 2007, cited from earlier work
MDA-kb2 cells = settings: EC20 = concentration that produces a 20% effect
Method: MDA-kb2 cells are human breast cancer cells stably transfected with a firefly luciferase reporter gene that is driven by an androgen-response element–containing promoter ([Wilson et al. 2002]). Details of the modified assay were published previously ([Ermler et al. 2010]). Briefly, cells were seeded at a concentration of 1 × 10^5 cells/mL in phenol red–free Leibowitz-15 medium (Invitrogen Ltd., Paisley, UK) containing 10% (charcoal-stripped) fetal calf serum (Invitrogen Ltd.) in white luminometer plates and allowed to attach for 24 hr. Cells were then exposed to eight serial dilutions of selected pesticides with or without DHT (0.25 nM). After 24 hr, luciferase activity was determined with SteadyGlo assay reagent (Promega UK Ltd., Southampton, Hampshire, UK) and measured in a plate reader (FLUOstar Optima, BMG Labtech GmbH, Offenburg, Germany). […] All concentrations were tested in duplicate over two plates, and each pesticide was measured at least twice in separate experiments. For comparative purposes, luminescence was normalized to DHT alone at coexposure concentration (maximum response, 100%) and solvent-only (ethanol) controls (minimum response, 0%). […] Pesticides were initially tested over a concentration range of 0.64 nM–50 μM (5× dilutions) as a range-finding exercise. Subsequently, the concentration ranges were modified to reflect the potency and toxicity of each individual compound. […] Sixty percent of the pesticides were repeat tested using the same product but with new stock solutions and by a different experimenter.
To analyze antiandrogenic action, raw luminescence readings were normalized on a plate-by-plate basis to the means of the positive DHT controls (n = 8) and the solvent controls (n = 8) ([Ermler et al. 2010]). […] Specifically, a variety of nonlinear regression models were fitted independently to the same data set, and the best-fitting model was selected using a statistical goodness-of-fit criterion. […] Data considered to be statistically significant at p < 0.05 were analyzed using the best-fit approach as described above. All statistical analysis was performed using SAS statistical software (SAS Institute Inc., Cary, NC, USA). From the best-fitting model, we derived inhibitory concentrations for antiandrogenicity and effect concentrations for cytotoxicity.

[1] = stored grain, < 24 weeks; ref EFSA 2005; cited from earlier work
yeast = experiment: YAS, cytotoxicity (turbidity at 620 nm); format: cell-based; settings: EC20 = concentration that produces a 20% effect; yeast turbidity
Method: The methods for the YAS have been described previously ([Sohoni and Sumpter 1998]). Briefly, stimulation of the transfected AR causes a color change in the media, which is measured by absorbance at 540 nm (Labsystems Multiskan Multisoft, Vienna, VA, USA). Plates were also measured at 620 nm to measure cell growth (turbidity) to check for any cytotoxic effects that may have occurred. Pesticides were coincubated with DHT (6.4 nM). […] Incubation time was 53 hr at 28°C. […] Pesticide serial dilutions were tested in duplicate over two plates and were tested in two separate experiments.

rats = settings: 12 mg/kg body weight/day, ref EFSA 2005; cited from earlier work

CCN(CC)c1nc(C)cc(OP(=S)(OC)OC)n1 [Pirimiphos-methyl]
Fertility (adult male rats; 125 mg/kg body weight/day): decreased fertility | Sperm density and mobility (adult male rats; 125 mg/kg body weight/day): decreased sperm density and mobility | Testicular atrophy, lowest observed adverse effect level (adult male rats): 41.67 mg/kg body weight/day | Cytotoxic EC20 (μM) MDA-kb2 (MDA-kb2 cells): > 50 µM | Unchanged parent compound on stored grain [1]: 70% | Cytotoxic EC20 (μM) YAS (yeast): > 200 µM | Testicular effect of maternal and postnatal exposure (rats): testicular tubular atrophy

From publication PMC3114813 (Environmental Health Perspectives, 2011)
